Measured values taken from ChEMBL document CHEMBL3991601, “The target landscape of clinical kinase drugs” (Science, 2017).
pKd: −log10 of the molar value. Active and inactive are the calls of the source. For most assays here, no stated cut-off is given here; in the data, actives have a measured Kd and inactives only a lower limit.

Tests used:
Ephrin type-A receptor 2 = Ephrin type-A receptor 2 (Homo sapiens, UniProt P29317)
[1] = target: Cyclin-dependent kinase 6 (Homo sapiens, UniProt Q00534)
[2] = target: Mitogen-activated protein kinase kinase kinase 4 (Homo sapiens, UniProt Q9Y6R4)
[3] = target: Cyclin-dependent kinase 3 (Homo sapiens, UniProt Q00526)
[4] = target: T1, Beta-adrenergic receptor kinase 1 (Homo sapiens, UniProt P25098)
T1 sequence (P25098 whole entry): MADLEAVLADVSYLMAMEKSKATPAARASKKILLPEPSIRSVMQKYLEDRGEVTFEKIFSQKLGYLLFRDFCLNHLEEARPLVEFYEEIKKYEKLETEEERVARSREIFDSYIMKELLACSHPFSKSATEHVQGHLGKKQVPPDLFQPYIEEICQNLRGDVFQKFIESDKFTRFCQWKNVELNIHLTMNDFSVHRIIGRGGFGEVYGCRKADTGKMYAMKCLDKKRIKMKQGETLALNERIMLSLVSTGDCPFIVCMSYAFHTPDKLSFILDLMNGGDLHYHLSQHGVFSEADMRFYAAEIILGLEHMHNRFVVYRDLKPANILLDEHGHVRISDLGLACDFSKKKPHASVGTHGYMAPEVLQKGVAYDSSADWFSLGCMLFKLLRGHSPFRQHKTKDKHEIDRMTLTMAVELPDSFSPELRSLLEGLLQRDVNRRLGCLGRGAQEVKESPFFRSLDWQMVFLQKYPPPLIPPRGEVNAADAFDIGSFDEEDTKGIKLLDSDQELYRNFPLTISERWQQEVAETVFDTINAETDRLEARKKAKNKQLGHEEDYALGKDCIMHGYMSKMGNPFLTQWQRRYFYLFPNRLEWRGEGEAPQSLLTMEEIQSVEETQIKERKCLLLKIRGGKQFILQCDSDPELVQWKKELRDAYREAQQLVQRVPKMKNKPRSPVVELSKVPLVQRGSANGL

Insulin receptor = Insulin receptor (Homo sapiens, UniProt P06213)
[5] = target: T2, Peroxisomal acyl-coenzyme A oxidase 3 (Homo sapiens, UniProt O15254)
T2 sequence (O15254 whole entry): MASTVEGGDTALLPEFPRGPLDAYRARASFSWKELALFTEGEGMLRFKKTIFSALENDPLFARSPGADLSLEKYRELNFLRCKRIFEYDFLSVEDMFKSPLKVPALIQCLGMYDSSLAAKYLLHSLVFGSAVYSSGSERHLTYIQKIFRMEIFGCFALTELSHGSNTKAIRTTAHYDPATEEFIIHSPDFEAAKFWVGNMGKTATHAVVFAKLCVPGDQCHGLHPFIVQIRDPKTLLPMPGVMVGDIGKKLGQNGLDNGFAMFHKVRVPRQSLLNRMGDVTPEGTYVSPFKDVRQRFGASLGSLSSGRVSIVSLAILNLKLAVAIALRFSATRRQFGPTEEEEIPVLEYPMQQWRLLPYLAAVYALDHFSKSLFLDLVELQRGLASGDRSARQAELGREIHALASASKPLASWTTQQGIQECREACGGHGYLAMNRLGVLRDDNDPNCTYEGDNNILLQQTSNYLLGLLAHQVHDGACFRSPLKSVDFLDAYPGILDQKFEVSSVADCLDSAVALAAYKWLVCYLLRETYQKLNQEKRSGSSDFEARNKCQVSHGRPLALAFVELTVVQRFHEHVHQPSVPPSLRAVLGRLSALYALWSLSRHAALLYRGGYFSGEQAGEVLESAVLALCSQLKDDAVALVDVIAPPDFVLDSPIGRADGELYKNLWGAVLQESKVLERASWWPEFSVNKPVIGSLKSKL

[6] = target: Calcium/calmodulin-dependent protein kinase kinase 2 (Homo sapiens, UniProt Q96RR4)
[7] = target: Receptor-interacting serine/threonine-protein kinase 3 (Homo sapiens, UniProt Q9Y572)
Adenosine kinase = Adenosine kinase (Homo sapiens, UniProt P55263)
[8] = target: Myosin light chain kinase, smooth muscle (Homo sapiens, UniProt Q15746)
[9] = target: T3, Tyrosine-protein kinase Tec (Homo sapiens, UniProt P42680)
T3 sequence (P42680 whole entry): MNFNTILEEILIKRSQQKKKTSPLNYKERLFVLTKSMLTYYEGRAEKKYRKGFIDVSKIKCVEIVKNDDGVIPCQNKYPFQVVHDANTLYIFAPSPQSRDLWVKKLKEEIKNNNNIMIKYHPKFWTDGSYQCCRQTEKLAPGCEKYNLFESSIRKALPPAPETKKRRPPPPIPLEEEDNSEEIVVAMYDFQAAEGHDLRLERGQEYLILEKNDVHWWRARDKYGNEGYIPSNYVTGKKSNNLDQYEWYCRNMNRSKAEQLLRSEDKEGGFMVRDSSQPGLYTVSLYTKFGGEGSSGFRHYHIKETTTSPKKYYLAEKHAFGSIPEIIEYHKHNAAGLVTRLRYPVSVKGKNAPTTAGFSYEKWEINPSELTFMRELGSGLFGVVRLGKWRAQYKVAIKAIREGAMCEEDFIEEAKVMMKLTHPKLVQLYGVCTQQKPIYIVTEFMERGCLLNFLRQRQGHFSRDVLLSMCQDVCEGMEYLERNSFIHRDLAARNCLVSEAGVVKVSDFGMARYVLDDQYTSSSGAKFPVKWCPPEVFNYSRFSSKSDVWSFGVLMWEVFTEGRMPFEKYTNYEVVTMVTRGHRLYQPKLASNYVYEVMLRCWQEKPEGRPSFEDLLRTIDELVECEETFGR

[10] = target: Ribosomal protein S6 kinase alpha-1 (Homo sapiens, UniProt Q15418)
Ephrin type-A receptor 7 = Ephrin type-A receptor 7 (Homo sapiens, UniProt Q15375)
[11] = target: RAC-gamma serine/threonine-protein kinase (Homo sapiens, UniProt Q9Y243)
[12] = target: U5 small nuclear ribonucleoprotein 200 kDa helicase (Homo sapiens, UniProt O75643)
[13] = target: BMP-2-inducible protein kinase (Homo sapiens, UniProt Q9NSY1)

Sequence of Receptor-interacting serine/threonine-protein kinase 3 (Q9Y572 whole entry): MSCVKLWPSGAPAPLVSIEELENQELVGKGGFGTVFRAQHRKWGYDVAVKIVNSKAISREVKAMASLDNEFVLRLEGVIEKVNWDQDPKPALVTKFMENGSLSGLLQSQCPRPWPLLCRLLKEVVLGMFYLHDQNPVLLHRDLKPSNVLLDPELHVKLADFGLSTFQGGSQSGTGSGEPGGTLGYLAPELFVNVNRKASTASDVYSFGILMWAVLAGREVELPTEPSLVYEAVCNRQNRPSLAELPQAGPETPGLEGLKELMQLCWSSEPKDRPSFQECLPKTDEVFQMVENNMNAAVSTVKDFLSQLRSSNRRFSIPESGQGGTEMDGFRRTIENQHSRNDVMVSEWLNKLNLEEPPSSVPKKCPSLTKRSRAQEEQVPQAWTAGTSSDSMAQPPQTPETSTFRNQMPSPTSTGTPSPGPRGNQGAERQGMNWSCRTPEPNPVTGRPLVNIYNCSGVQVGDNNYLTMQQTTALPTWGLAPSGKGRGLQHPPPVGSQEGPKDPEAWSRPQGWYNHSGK
Sequence of U5 small nuclear ribonucleoprotein 200 kDa helicase (O75643 whole entry): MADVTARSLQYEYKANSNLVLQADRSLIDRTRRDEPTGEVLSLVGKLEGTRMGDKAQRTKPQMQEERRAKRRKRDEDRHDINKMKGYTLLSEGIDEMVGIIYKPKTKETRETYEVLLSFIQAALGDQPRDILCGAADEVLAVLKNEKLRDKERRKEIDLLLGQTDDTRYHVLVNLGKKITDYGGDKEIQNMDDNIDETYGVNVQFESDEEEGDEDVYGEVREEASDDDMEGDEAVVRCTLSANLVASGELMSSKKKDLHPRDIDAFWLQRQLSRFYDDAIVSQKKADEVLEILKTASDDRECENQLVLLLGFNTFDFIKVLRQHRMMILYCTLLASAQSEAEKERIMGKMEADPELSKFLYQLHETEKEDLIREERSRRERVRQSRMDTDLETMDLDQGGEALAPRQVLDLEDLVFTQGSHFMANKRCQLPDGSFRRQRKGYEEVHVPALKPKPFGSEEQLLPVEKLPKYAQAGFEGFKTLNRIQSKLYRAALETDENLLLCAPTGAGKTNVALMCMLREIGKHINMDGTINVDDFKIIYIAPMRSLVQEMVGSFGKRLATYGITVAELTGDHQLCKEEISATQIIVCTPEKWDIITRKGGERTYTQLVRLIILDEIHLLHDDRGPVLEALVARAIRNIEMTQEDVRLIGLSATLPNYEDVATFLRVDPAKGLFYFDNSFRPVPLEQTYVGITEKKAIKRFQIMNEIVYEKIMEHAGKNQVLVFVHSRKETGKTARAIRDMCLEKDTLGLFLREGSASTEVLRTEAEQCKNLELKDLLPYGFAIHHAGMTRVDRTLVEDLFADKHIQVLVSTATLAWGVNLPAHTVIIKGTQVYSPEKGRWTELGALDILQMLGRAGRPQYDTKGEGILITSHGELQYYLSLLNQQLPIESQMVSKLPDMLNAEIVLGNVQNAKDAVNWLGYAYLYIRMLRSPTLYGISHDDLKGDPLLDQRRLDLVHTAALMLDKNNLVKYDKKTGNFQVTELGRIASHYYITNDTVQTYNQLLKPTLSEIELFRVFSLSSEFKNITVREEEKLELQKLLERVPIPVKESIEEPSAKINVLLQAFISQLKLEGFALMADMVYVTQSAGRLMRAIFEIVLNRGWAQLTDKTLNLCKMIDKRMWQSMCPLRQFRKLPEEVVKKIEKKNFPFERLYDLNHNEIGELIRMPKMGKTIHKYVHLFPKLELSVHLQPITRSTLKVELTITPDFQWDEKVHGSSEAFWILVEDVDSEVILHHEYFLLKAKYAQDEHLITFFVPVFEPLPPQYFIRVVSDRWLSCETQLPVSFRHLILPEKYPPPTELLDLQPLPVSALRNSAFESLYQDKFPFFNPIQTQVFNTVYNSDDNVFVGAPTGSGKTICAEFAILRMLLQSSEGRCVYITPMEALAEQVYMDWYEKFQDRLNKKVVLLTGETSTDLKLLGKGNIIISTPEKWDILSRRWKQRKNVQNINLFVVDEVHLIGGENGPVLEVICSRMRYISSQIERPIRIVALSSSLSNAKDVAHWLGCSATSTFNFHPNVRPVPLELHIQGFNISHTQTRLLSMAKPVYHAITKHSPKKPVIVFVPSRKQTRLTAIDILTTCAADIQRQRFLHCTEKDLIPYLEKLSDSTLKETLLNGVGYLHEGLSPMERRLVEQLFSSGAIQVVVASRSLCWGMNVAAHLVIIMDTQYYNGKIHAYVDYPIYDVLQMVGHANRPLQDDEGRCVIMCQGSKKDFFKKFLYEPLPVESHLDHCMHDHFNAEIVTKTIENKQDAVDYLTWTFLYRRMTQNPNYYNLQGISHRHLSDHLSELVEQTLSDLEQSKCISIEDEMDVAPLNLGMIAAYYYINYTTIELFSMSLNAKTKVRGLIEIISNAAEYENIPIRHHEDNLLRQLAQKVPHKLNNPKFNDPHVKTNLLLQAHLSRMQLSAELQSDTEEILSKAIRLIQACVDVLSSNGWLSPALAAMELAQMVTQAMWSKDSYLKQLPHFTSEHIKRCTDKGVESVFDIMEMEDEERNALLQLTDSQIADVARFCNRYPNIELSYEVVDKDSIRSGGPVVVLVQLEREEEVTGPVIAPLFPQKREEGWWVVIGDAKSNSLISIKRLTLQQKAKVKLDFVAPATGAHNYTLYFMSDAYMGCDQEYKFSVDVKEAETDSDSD
Sequence of Cyclin-dependent kinase 6 (Q00534 whole entry): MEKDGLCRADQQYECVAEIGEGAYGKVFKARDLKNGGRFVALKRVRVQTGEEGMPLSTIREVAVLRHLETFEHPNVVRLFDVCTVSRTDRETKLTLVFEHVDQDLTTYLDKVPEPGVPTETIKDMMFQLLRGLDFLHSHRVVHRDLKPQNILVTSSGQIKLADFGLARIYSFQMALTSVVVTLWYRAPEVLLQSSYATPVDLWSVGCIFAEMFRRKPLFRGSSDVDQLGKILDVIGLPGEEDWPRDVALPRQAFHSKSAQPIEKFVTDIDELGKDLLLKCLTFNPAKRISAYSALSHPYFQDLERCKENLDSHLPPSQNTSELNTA
Sequence of Insulin receptor (P06213 28-758 limits assumed): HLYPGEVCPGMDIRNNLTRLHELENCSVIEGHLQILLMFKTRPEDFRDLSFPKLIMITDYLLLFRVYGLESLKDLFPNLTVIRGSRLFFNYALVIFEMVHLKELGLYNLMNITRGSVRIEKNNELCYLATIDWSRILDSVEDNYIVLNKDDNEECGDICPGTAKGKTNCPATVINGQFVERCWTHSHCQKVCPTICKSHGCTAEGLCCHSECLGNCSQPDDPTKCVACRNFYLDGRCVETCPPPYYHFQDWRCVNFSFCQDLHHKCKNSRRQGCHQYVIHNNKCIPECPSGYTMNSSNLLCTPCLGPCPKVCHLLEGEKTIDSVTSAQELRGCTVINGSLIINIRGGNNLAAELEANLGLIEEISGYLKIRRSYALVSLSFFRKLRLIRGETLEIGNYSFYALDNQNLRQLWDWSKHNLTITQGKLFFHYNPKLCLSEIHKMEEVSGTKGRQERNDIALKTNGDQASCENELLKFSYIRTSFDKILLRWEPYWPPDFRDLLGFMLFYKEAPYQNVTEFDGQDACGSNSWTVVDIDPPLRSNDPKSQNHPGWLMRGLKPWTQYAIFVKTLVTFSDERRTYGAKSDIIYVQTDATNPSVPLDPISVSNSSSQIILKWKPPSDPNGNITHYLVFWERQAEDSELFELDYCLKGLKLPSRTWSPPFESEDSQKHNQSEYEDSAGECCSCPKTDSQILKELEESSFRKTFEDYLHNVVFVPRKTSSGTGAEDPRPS
Sequence of Insulin receptor (P06213 763-1382 limits assumed): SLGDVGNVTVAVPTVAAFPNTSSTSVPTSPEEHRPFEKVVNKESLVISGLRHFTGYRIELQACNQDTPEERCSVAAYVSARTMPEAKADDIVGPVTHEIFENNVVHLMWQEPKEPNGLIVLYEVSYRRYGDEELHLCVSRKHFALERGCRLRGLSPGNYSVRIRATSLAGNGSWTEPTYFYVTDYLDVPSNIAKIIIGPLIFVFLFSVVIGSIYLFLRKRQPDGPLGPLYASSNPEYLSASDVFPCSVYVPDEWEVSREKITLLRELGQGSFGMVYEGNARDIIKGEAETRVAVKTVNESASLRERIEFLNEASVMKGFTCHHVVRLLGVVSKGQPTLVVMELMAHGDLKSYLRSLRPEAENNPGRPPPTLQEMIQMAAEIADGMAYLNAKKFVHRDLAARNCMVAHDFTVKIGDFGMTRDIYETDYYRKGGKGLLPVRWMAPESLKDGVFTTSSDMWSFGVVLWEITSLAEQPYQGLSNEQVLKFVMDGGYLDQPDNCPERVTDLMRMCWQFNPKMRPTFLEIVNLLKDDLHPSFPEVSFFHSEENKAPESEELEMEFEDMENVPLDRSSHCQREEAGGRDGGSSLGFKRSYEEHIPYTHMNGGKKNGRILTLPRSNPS
Sequence of Cyclin-dependent kinase 3 (Q00526 whole entry): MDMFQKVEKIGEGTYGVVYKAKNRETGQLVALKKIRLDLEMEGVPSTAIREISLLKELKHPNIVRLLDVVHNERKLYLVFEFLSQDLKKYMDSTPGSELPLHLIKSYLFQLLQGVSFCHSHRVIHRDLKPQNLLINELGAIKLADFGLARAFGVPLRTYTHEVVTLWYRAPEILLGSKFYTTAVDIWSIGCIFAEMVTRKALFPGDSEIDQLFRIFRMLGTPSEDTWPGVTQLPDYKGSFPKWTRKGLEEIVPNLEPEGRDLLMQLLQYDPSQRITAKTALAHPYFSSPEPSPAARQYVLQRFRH
Sequence of Adenosine kinase (P55263 whole entry): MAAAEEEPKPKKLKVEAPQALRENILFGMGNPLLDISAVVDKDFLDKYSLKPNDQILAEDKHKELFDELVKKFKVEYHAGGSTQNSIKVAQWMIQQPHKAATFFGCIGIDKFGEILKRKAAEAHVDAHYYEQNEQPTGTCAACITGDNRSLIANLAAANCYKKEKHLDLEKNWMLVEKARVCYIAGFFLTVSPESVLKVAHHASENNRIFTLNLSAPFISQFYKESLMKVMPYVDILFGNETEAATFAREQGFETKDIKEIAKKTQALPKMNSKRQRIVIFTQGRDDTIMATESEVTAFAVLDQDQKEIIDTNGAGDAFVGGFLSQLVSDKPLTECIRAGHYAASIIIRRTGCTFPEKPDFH

Compound	Kd (Ephrin type-A receptor 2)	Kd [1]	Kd [2]	Kd [3]	Kd [4]	Kd (Insulin receptor)	Kd [5]	Kd [6]	Kd [7]	Kd (Adenosine kinase)	Kd [8]	Kd [9]	Kd [10]	Kd (Ephrin type-A receptor 7)	Kd [11]	Kd [12]	Kd [13]	pKd [13]	pKd (Ephrin type-A receptor 7)	pKd [8]	pKd [1]	pKd [7]
CN1CCN(CCOc2cc(OC3CCOCC3)c3c(Nc4c(Cl)ccc5c4OCO5)ncnc3c2)CC1 [SARACATINIB]	0.729 µM (active)	> 30 µM (inactive)	> 30 µM (inactive)	> 30 µM (inactive)	> 30 µM (inactive)	> 30 µM (inactive)	> 30 µM (inactive)	> 30 µM (inactive)	1.77 µM (active)	> 30 µM (inactive)	> 30 µM (inactive)	> 30 µM (inactive)	> 30 µM (inactive)	> 30 µM (inactive)	> 30 µM (inactive)	> 30 µM (inactive)	> 30 µM (inactive)	–	–	–	–	–
Cn1cc(-c2cnn3c(N)c(Br)c([C@@H]4CCCNC4)nc23)cn1 [SCH-900776]	> 30 µM (inactive)	> 30 µM (inactive)	> 30 µM (inactive)	> 30 µM (inactive)	> 30 µM (inactive)	> 30 µM (inactive)	> 30 µM (inactive)	> 30 µM (inactive)	> 30 µM (inactive)	> 30 µM (inactive)	> 30 µM (inactive)	> 30 µM (inactive)	> 30 µM (inactive)	> 30 µM (inactive)	> 30 µM (inactive)	> 30 µM (inactive)	–	5.57	–	–	–	–
CO[C@H]1C[C@@H]2CC[C@@H](C)[C@@](O)(O2)C(=O)C(=O)N2CCCC[C@H]2C(=O)O[C@H]([C@H](C)C[C@@H]2CC[C@@H](OC(=O)C(C)(CO)CO)[C@H](OC)C2)CC(=O)[C@H](C)/C=C(\C)[C@@H](O)[C@@H](OC)C(=O)[C@H](C)C[C@H](C)/C=C/C=C/C=C/1C [TEMSIROLIMUS]	> 30 µM (inactive)	> 30 µM (inactive)	> 30 µM (inactive)	> 30 µM (inactive)	> 30 µM (inactive)	> 30 µM (inactive)	> 30 µM (inactive)	> 30 µM (inactive)	> 30 µM (inactive)	> 30 µM (inactive)	> 30 µM (inactive)	> 30 µM (inactive)	> 30 µM (inactive)	> 30 µM (inactive)	> 30 µM (inactive)	> 30 µM (inactive)	> 30 µM (inactive)	–	–	–	–	–
COc1cc2c(Nc3ccc(Cl)c(Cl)c3F)ncnc2cc1OC[C@@H]1C[C@@H]2CN(C)C[C@@H]2C1 [TESEVATINIB]	0.501 µM (active)	> 30 µM (inactive)	> 30 µM (inactive)	> 30 µM (inactive)	> 30 µM (inactive)	> 30 µM (inactive)	> 30 µM (inactive)	> 30 µM (inactive)	0.366 µM (active)	> 30 µM (inactive)	> 30 µM (inactive)	> 30 µM (inactive)	> 30 µM (inactive)	–	> 30 µM (inactive)	> 30 µM (inactive)	> 30 µM (inactive)	–	7.66	–	–	–
O=C(Cc1ccc(-c2ccc(OCCN3CCOCC3)cc2)cn1)NCc1ccccc1 [TIRBANIBULIN]	> 30 µM (inactive)	> 30 µM (inactive)	> 30 µM (inactive)	> 30 µM (inactive)	> 30 µM (inactive)	> 30 µM (inactive)	> 30 µM (inactive)	> 30 µM (inactive)	> 30 µM (inactive)	> 30 µM (inactive)	> 30 µM (inactive)	> 30 µM (inactive)	> 30 µM (inactive)	> 30 µM (inactive)	> 30 µM (inactive)	> 30 µM (inactive)	> 30 µM (inactive)	–	–	–	–	–
Cc1cc(Nc2ncnc3ccc(NC4=NC(C)(C)CO4)cc23)ccc1Oc1ccn2ncnc2c1 [TUCATINIB]	> 30 µM (inactive)	> 30 µM (inactive)	> 30 µM (inactive)	> 30 µM (inactive)	> 30 µM (inactive)	> 30 µM (inactive)	> 30 µM (inactive)	> 30 µM (inactive)	–	> 30 µM (inactive)	> 30 µM (inactive)	> 30 µM (inactive)	> 30 µM (inactive)	> 30 µM (inactive)	> 30 µM (inactive)	> 30 µM (inactive)	> 30 µM (inactive)	–	–	–	–	5.97

Further lines, with some results ahead:

Kd (Ephrin type-A receptor 2)	Kd [1]	Kd [2]	Kd [3]	Kd [4]	Kd (Insulin receptor)	Kd [5]	Kd [6]	Kd [7]	Kd (Adenosine kinase)	Kd [8]	Kd [9]	Kd [10]	Kd (Ephrin type-A receptor 7)	Kd [11]	Kd [12]	Kd [13]	pKd [13]	pKd (Ephrin type-A receptor 7)	pKd [8]	pKd [1]	Compound	pKd [7]
0.807 µM (active)	> 30 µM (inactive)	> 30 µM (inactive)	> 30 µM (inactive)	> 30 µM (inactive)	> 30 µM (inactive)	> 30 µM (inactive)	> 30 µM (inactive)	1.8 µM (active)	> 30 µM (inactive)	–	> 30 µM (inactive)	> 30 µM (inactive)	> 30 µM (inactive)	> 30 µM (inactive)	> 30 µM (inactive)	> 30 µM (inactive)	–	–	5.36	–	C[C@@H](NC(=O)c1ncnc(N)c1Cl)c1ncc(C(=O)Nc2cc(C(F)(F)F)c(Cl)cn2)s1 [TOVORAFENIB]	–
> 30 µM (inactive)	> 30 µM (inactive)	> 30 µM (inactive)	> 30 µM (inactive)	> 30 µM (inactive)	> 30 µM (inactive)	> 30 µM (inactive)	> 30 µM (inactive)	> 30 µM (inactive)	> 30 µM (inactive)	> 30 µM (inactive)	> 30 µM (inactive)	> 30 µM (inactive)	> 30 µM (inactive)	> 30 µM (inactive)	> 30 µM (inactive)	0.179 µM (active)	–	–	–	–	C[C@@H](N)c1ccc(C(=O)Nc2ccnc3[nH]ccc23)cc1 [Y-39983]	–
> 30 µM (inactive)	–	> 30 µM (inactive)	> 30 µM (inactive)	> 30 µM (inactive)	> 30 µM (inactive)	> 30 µM (inactive)	> 30 µM (inactive)	> 30 µM (inactive)	> 30 µM (inactive)	> 30 µM (inactive)	> 30 µM (inactive)	> 30 µM (inactive)	> 30 µM (inactive)	> 30 µM (inactive)	> 30 µM (inactive)	> 30 µM (inactive)	–	–	–	5.80	CN1C/C=C/CCOc2cccc(c2)-c2ccnc(n2)Nc2cccc(c2)C1 [ZOTIRACICLIB]	–
